Data: patent publication US20090137496A1, “Use of Active Ingredients Containing Hydroxystilbene for Preventing and/or Treating Osteoporosis” (MATSUSHITA ELECTRIC INSUTRIAL CO., LTD., priority 2005, published 2009)
“Also recorded” adds a separate entry of the source.

Key:
[1] = Dissolving tests with ERr 731 in ethanol and glycerol; format: physicochemical
[2] = Accumulation of ERr 731 ingredients in dog plasma, 100/300/1000 mg/kg/day, day 1; format: in vivo, dog (beagle); conditions: male and female dogs, ERr 731 100, 300, 1000 mg/kg/day, day 1
Method: (§1) These plasma samples were processed as follows: 500 μl of plasma were mixed with 25 μl of an internal standard working solution (2.5 ng/μl rhaponticin or rhapontigenin in methanol) and then mixed with 500 μl of isotonic NaCl solution and 2.5 ml of diethyl ether/butanol (9/1; v/v). After shaking and centrifugation (10 minutes at 4600 rpm), about 2 ml of the supernatant were removed and dried under a stream of nitrogen (at 60° C.). The pellet was taken up in 50 μl of methanol. Addition of 200 μl of distilled water was followed by renewed mixing, and 200 μl were pipetted into autosampler tubes (light-protected). 30 μl of the samples were injected for analysis into an LC-MS/MS system (PE Sciex API 3000). Chromatographic separation of the analytes took place on a Phenomenex Polymer X column with a gradient of an ammonium buffer solution and an acetonitrile/methanol mixture as mobile phase.
On day 1, 5 ml of blood were taken from the animals after 0, 0.5, 1, 2, 4, 8 and 24 hours in each case, and plasma was obtained. The analysis as described in section a) was carried out thereon in order to detect rhaponticin, deoxyrhaponticin, rhapontigenin, deoxyrhapontigenin, resveratrol and piceatannol in blood. The results of the test are depicted in FIG. 2a.

[3] = biological target: T1, ERβ (Homo sapiens, UniProt Q92731); assay: ERβ activation in the osteosarcoma cell line U2OS; format: cell-based
T1 construct: host or cells: U2OS (human osteosarcoma)

[4] = biological target: T2, ERα (Homo sapiens, UniProt P03372); assay: ERα activation, luciferase reporter gene in U2OS-ERα osteosarcoma cells; format: cell-based; conditions: U2OS stably transfected with ERα, 24 h
T2 construct: host or cells: U2OS-ERα (human osteosarcoma), stably transfected, pSG5 vector
T2 sequence (P03372 1-595): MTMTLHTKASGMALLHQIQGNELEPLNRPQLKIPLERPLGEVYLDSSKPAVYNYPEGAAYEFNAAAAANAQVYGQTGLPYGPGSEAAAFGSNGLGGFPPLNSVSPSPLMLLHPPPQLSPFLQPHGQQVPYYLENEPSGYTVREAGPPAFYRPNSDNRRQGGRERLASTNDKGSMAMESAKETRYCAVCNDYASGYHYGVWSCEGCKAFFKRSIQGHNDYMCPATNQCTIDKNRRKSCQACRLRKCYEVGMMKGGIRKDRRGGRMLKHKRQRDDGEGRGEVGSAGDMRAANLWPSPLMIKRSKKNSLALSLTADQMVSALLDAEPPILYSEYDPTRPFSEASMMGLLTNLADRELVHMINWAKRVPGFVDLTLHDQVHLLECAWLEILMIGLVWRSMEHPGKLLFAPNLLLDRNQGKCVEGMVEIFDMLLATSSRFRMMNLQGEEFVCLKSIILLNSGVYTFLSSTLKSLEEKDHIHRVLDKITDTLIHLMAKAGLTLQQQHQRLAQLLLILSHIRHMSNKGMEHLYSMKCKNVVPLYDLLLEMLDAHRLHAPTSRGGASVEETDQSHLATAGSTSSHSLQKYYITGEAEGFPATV
Method: U2OS cells are human, epithelially organized osteosarcoma cells originally isolated in 1964 from the tibia of a child by J. Ponten and E. Saksela (Ponten and Saksela 1967: Two established in vitro cell lines from human mesenchymal tumours, Int. J. Cancer 2: 434-447).
A suitable medium for the cells is DMEM/F12 (Dulbecco's modified Eagle's Medium), to which 10% fetal calf serum was added for culturing the cells, and 5% fetal calf serum was added for the actual experiment. The latter was previously made steroid-free (DCC medium) using dextran-coated activated carbon (dextran-coated charcoal; DCC). Incubation took place at 37° C. with 5% v/v CO2. In order to ensure comparability between the individual experiments, the passages of the cells used for the experiments never exceeded 20 after thawing from liquid nitrogen.
Besides native U2OS cells, use was made of U2OS-ERα cells (Schering A G, Berlin) which were stably transfected with ERα (pSG5 vector, Stratagene) and merely required transfection with the reporter gene (ERE)2-tk-Luc (pGL3 basic vector, Promega). […]
After the cells were treated with the test or control substances for 24 h it was possible to measure the luciferase activity as reporter gene using a kit from Promega, as stated by the manufacturer. The protein content was determined using the BCA® kit (Sigma).

[5] = Pharmacokinetics of ERr 731 ingredients in the blood of a volunteer after oral intake (plasma LC-MS/MS); format: in vivo, human; conditions: for detection in the blood: oral 10 tablets = 40 mg ERr 731, plasma
Method: Subsequently, 10 ml of blood was taken at various times (as indicated in FIG. 1) and the plasma was obtained by centrifugation.
as §1

[6] = Solubility statements; format: physicochemical
Text: Use is made of this for its isolation. Since, besides other organic acids, the root in particular has a high content of oxalic acid (⅔ in water-soluble and ⅓ in bound form), this must be neutralized during the isolation in order to prevent the pH drifting into the acidic range and thus to inhibit premature precipitation of the rhaponticin. This is achieved by using calcium oxide. The latter is employed as quicklime solution with a pH of 12.4-12.6.
Hydroxypropylmethylcellulose (hypromellose USP) or another gel former is allowed to swell with 2-10% by weight in purified water. […] The amount of glycerol may be up to 50% of the weight of the gel. […] If necessary, preservatives (e.g. sorbic acid and its salts) can be added to the gel. Adjustment of the pH is also possible. As alternative to glycerol it is also possible to use 30-86% by volume ethanol.

[7] = Test A: 200 mg of dry extract in 50 ml of glycerol R
[8] = Test B: 200 mg of dry extract in 50 ml of ethanol 30% R
[9] = Test C: 200 mg of dry extract in 50 ml of ethanol 50% R
[10] = Test D: 200 mg of dry extract in 50 ml of ethanol 86% R

T1 sequence (Q92731 whole entry): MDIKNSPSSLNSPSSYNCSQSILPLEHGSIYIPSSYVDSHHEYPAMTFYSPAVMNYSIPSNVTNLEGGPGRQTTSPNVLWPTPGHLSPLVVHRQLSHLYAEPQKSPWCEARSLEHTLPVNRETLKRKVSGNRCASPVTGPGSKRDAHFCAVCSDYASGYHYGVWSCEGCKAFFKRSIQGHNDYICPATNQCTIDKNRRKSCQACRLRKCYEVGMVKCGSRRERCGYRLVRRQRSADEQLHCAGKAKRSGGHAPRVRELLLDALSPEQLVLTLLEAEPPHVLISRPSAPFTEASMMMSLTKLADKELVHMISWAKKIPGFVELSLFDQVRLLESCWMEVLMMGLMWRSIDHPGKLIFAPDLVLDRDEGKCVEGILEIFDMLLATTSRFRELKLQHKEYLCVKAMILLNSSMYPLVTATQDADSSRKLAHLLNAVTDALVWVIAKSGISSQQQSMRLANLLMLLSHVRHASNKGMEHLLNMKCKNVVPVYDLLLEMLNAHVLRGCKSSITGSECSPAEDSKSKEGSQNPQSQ

Row | Compound | content found in solution [1, 7] | dissolved, of theory [1, 7] | content found in solution [1, 8] | dissolved, of theory [1, 8] | content found in solution [1, 9] | dissolved, of theory [1, 9] | content found in solution [1, 10] | dissolved, of theory [1, 10] | detection / accumulation (AUC 0-24 h) in dog plasma [2] | time of maximum in the blood ([5]; oral 40 mg ERr 731) [h] | detection in the blood [5] | solubility in aqueous solutions with an alkaline pH range ([6]; alkaline pH) | behaviour in the acidic pH range ([6]; pH 3.4-3.6) | activation of ERβ [3] | activation of ER-α [4]
1 | COc1ccc(/C=C/c2cc(O)cc(O[C@@H]3O[C@H](CO)[C@@H](O)[C@H](O)[C@H]3O)c2)cc1 [deoxyrhaponticin, 3,5′-Dihydroxy-4′-methoxystilbene 3-O-β-D-glucopyranoside] | 27.1% deoxyrhaponticin | (90.6% of theory) | 25.2% deoxyrhaponticin | (84.2% of theory) | 29.0% deoxyrhaponticin | (97.0% of theory) | 29.5% deoxyrhaponticin | (98.7% of theory) | dose-dependent accumulation |  |  |  |  |  | 
2 | Oc1cc(O)cc(/C=C/c2ccc(O)c(O)c2)c1 [piceatannol, Piceatannol (astringenin)] |  |  |  |  |  |  |  |  |  |  |  |  |  | activate relatively specifically only the ERβ | no significant effects; also recorded: no activation
3 | Oc1ccc(/C=C/c2cc(O)cc(O)c2)cc1 [resveratrol, Resveratrol] |  |  |  |  |  |  |  |  |  |  |  |  |  |  | no significant effects; also recorded: no activation

Now from value to compound, other results behind:

Row | content found in solution [1, 7] | dissolved, of theory [1, 7] | content found in solution [1, 8] | dissolved, of theory [1, 8] | content found in solution [1, 9] | dissolved, of theory [1, 9] | content found in solution [1, 10] | dissolved, of theory [1, 10] | detection / accumulation (AUC 0-24 h) in dog plasma [2] | time of maximum in the blood ([5]; oral 40 mg ERr 731) [h] | detection in the blood [5] | solubility in aqueous solutions with an alkaline pH range ([6]; alkaline pH) | behaviour in the acidic pH range ([6]; pH 3.4-3.6) | Compound | activation of ERβ [3] | activation of ER-α [4]
4 | 55.1% rhaponticin | (89.0% of theory) | 52.2% rhaponticin | (84.3% of theory) | 58.8% rhaponticin | (95.0% of theory) | 59.8% rhaponticin | (96.6% of theory) | dose-dependent accumulation | 3 to 4 | detected; also recorded: detectable | readily soluble | precipitated | COc1ccc(C=Cc2cc(O)cc(O[C@@H]3O[C@H](CO)[C@@H](O)[C@H](O)[C@H]3O)c2)cc1O [rhaponticin, 3,3′,5-Trihydroxy-4′-methoxystilbene 3-O-β-D-glucopyranoside] |  | 
5 |  |  |  |  |  |  |  |  | undetectable |  | could not be found and not |  |  | COc1ccc(/C=C/c2cc(O)cc(O)c2)cc1O [rhapontigenin, 3,3′,5-Trihydroxy-4′-methoxystilbene] |  | 
